Consider five compounds from patent publication US8574544B1, “Pharmaceutical composition of nanoparticles” (GP Medical, Inc., priority 2005, dated 2013).

For data set [1] the following is noted: in vivo; cited from earlier work.
In data set [2] the test system is brush border membrane bounded enzymes. Put plainly: Enzyme inhibition study: enzymatic degradation of insulin versus time. In kind it is biochemical. The following applies: 5 mg/ml; insulin 1 mg/ml; up to 2 hours.
Excerpt: Brush border membrane bounded enzymes were used to simulate a contacting membrane at the bottom of a donor compartment, wherein the insulin-loaded medium (Krebs-Ringer buffer) in the donor compartment was used as the starting material at time zero. Three elements were used in this enzyme inhibition study to assess the enzymatic degradation of insulin versus time by brush border membrane bounded enzymes.
For data set [3] the following is noted: 20° C.; cited from earlier work.
The conditions of data set [4]: cited from earlier work.
Data set [5] relates to diabetic rats. Put plainly: Hypoglycemic effect in diabetic rats (Example no. 10). The format is in vivo, Wistar male rats. How it is done:
In the in vivo study, rats were injected with streptozotocin (STZ 75 mg/kg intraperitoneal) in 0.01M citrate buffer (pH 4.3) to induce diabetes. The blood from the rat's tail was analyzed with a commercially available glucometer for blood glucose. The blood glucose level on Wistar male rats at no fasting (n=5) was measured at 107.2±8.1 mg/dL for normal rats while the blood glucose level was at 469.7±34.2 mg/dL for diabetic rats. In the animal study, diabetic rats were fasting for 12 hours and subjected to four different conditions: (a) oral deionized water (DI) administration; (b) oral insulin administration at 30 U/kg; (c) oral insulin-loaded nanoparticles administration at 30 U/kg; and (d) subcutaneous (SC) insulin injection at 5 U/kg as positive control. The blood glucose concentration from rat's tail was measured over the time in the study.
It is illustrative that substantially all insulin from the oral administration route has been decomposed in rat stomach. As anticipated, the glucose decrease for the SC insulin injection route appears in rat blood in the very early time interval and starts to taper off after 3 hours in this exemplary study.
The most important observation of the study comes from the oral administration route with insulin-loaded nanoparticles. […]

Data set [6] concerns diabetic rats. Put plainly: Freeze-dried nanoparticles in enteric-coated capsule in diabetic rats (Example no. 19). The format is in vivo. The following applies: SC injection 5 U/kg. How it is done:
In the in vivo study, rats as prepared and conditioned according to Example no. 10 were used in this evaluation. […] The blood glucose concentration from rat's tail was measured over time.
As anticipated, the glucose decrease for the SC insulin injection method is evident in rat blood at a very early time interval starts to taper off after 2 hours, and ends at about 6 hours in this exemplary study. The most important observation of the study comes from the oral administration route with insulin-loaded lyophilized (namely, freeze-dried) nanoparticles. Nanoparticles of this example have an insulin LC at 4.4%, whereas nanoparticles from Example no. […] With the same amount of nanoparticles in both examples, the insulin-feeding ratio of Example no. 19 to Example no. 10 is about 1:3. In other words, the insulin fed to a rat in this study from nanoparticles is about ⅓ of the insulin from nanoparticles fed to rats in Example no. 10.
The blood glucose begins to decrease from the base line at about 3 hours after administration and sustains a lower glucose level for more than 10 hours into study. It implies that the current insulin-loaded nanoparticles may modulate the glucose level in animals in a sustained or prolonged effective mode. […]

For data set [7] the following is noted: insulin from bovine pancreas (Sigma-Aldrich); cited from earlier work.

Turning to “21^A-Gly-30^Ba-L-Arg-30^Bb-L-Arg-human insulin [Insulin glargine]”, in data set [1], the duration of activity entry is reported as “up to 24 hours”.
In the case of `O=C(O)CN(CCN(CC(=O)O)CC(=O)O)CCN(CC(=O)O)CC(=O)O` [DTPA, Diethylene triamine pentaacetic acid], the “protection of insulin activity or viable content against enzymatic degradation” value in data set [2] is listed as “substantially protect or maintain the insulin activity or viable content”.
On to `OC[C@H]1O[C@H](O[C@H]2O[C@H](CO)[C@@H](O)[C@H](O)[C@H]2O)[C@H](O)[C@@H](O)[C@@H]1O` [Trehalose, α-D-glucopyranosyl-(1→1)-α-D-glucopyranoside], for which the solubility in data set [3] is 68.9 g/100 g H2O.
For Drotrecogin alfa (activated), the “time to peak plasma levels” value in data set [4] (i.v. dosage guidelines) was “two”. The “time to complete clearance from plasma after termination of infusion” value in data set [4] (i.v. infusion) is recorded as “two”.
As for “insulin: model insulin from bovine pancreas (Sigma-Aldrich), given orally or by SC injection as controls”, the “time after which glucose decrease starts to taper off” value came to 3 h in the data set with diabetic rats [5] (SC injection 5 U/kg) and 2 h in the data set with diabetic rats [6]. Further, the “glucose change as a percentage of base lines” value with diabetic rats [5] (oral 30 U/kg, over 8 hours, n=5) is “relatively constant”. The “time at which glucose decrease ends” value with diabetic rats [6] is “about 6 hours”. The activity in data set [7] is not below 27 USP units/mg.
